Test results from patent publication US12180210B2, “Compounds” (INTRA-CELLULAR THERAPIES, INC., priority 2018, dated 2024).
Read-outs that look alike come from different tables or passages of the source.

Experiments:
mice [1] = assay: Forced swim paradigm, acute antidepressant-like activity; format: in vivo
mice [2] = assay: Tail suspension paradigm, acute antidepressant-like activity; format: in vivo
mice [3] = assay: Elevated plus maze, acute anxiolytic activity; details: compound 1, 2, and 5 mg/kg, i.p., diazepam 0.5 mg/kg
[4] = Pharmacokinetic study in mice, plasma and brain availability; details: single oral dose 10 mg/kg PO
Procedure: (§1) Mice are given a single oral dose of the compound to be tested (10 mg/kg, PO) and plasma and brain availability are measured (0.25-4h) using HPLC and LC-MS using methods analogous to those described in Zhao et al., J. Chromatogr.

PDE1 = assay: PDE isoform inhibition, IMAP procedure; format: biochemical
PDE3 = assay: PDE isoform inhibition, IMAP procedure; format: biochemical
PDE4 = tested on: T1, PDE4; assay: PDE isoform inhibition, IMAP procedure; format: biochemical
T1 construct: PDE4 IC50

PDE5 = PDE5 (Homo sapiens, UniProt O76074); assay: PDE isoform inhibition, IMAP procedure; format: biochemical
PDE6 = assay: PDE isoform inhibition, IMAP procedure; format: biochemical
[5] = tested on: HT-22 (hippocampal-like) cells; assay: cGMP levels in HT-22 cells stimulated by NMDA; format: cell-based
HT22 cells = assay: cAMP levels in HT22 cells stimulated by isoproterenol; format: cell-based
[6] = tested on: VASP (vasodilator stimulated phosphoprotein); assay: Phosphorylation of effector proteins under cGMP/cAMP control: VASP; format: cell-based
[7] = tested on: CREB (cAMP response element-binding protein); assay: Phosphorylation of effector proteins under cGMP/cAMP control: CREB; format: cell-based
BDNF = assay: Expression of the growth factor BDNF; format: cell-based
[8] = tested on: cGMP and cAMP levels in hippocampus; assay: In vivo levels of cGMP and cAMP in mouse brain (hippocampus); details: mice killed 30 min after injection
Procedure: For these studies, mice were killed 30 min after injection of each drug/dose and hippocampus isolated and used for measurement of cyclic nucleotides.

mice [9] = details: mouse, in vivo
in vivo = details: mouse, po, 10 mg/kg
Procedure: as §1

mice [10] = assay: Spontaneous locomotor activity; details: same dose levels that increased anxiolytic activity
mice [11] = assay: Hole board test, acute anxiolytic activity; details: compound 1, 2, and 5 mg/kg, i.p., diazepam 0.5 mg/kg

SMILES: COc1ccc(Cc2nn3c([C@@H](CCCc4ccccc4)[C@@H](C)O)nc(C)c3c(=O)[nH]2)cc1OC [BAY-7550]
- Immobility time / antidepressant-like activity, forced swim (mice [1]): generally smaller effects that did not reach significance in all assays
- Immobility time / antidepressant-like activity, tail suspension (mice [2]): generally smaller effects that did not reach significance in all assays
- Open arm entrances, elevated plus maze (mice [3]): small trends for these assays that did not achieve statistical significance
- Open arm entrances, elevated plus maze (mice [3]; listed as commercial PDE2 inhibitor): no statically significant effect
- Tmax [4]: 0.25

SMILES: Cc1ccc(-c2c(-c3nc(C)n4ccnc(N5CCC5)c34)cnn2C)cc1 [Compound 1, 8-(azetidin-1-yl)-3-methyl-1-(1-methyl-5-(p-tolyl)-1H-pyrazol-4-yl)imidazo[1,5-a]pyrazine]
- IC50 (PDE1): 8.3 µM
- IC50 (PDE3): > 100 µM
- IC50 (PDE4): 24.8 µM
- IC50 (PDE5): 15.1 µM
- IC50 (PDE6): > 100 µM
- Optimal dose for stimulation of cGMP levels [5]: 10 nM
- cGMP levels ([5]; NMDA (20 μM), 15 min incubation): dose-dependent increase
- Optimal dose for stimulation of cAMP levels (HT22 cells): 10 nM
- cAMP levels (HT22 cells; isoproterenol (ISO, 10 nM)): dose-dependent increase
- Phosphorylation of VASP [6]: concentration-dependent increase
- Phosphorylation of CREB [7]: concentration-dependent increase
- Expression of BDNF (BDNF): increased the expression
- Immobility time / antidepressant-like activity, forced swim (mice [1]): significantly reduced immobility time
- Immobility time / antidepressant-like activity, tail suspension (mice [2]): significantly reduced immobility time
- cAMP levels in hippocampus [8]: significant increases
- cGMP levels in hippocampus [8]: significant increases
- Spontaneous locomotor activity (mice [9]): did not significantly affect spontaneous locomotor activity
- AUC(0-t) (in vivo): 119 ng·h/mL
- Cmax (in vivo): 268 ng/mL
- Tmax (in vivo): 30 min
- half-life (in vivo): 48 min
- Open arm entrances, elevated plus maze (mice [3]): significantly increased open arm entrances

SMILES: CN1C(=O)CN=C(c2ccccc2)c2cc(Cl)ccc21 [Diazepam, diazepam]
- Spontaneous locomotor activity (mice [10]): did not significantly affect spontaneous locomotor activity
- Exploration, hole board test (mice [11]): increased explorations
- Open arm entrances, elevated plus maze (mice [3]): increased entrance into open arms

SMILES: CNCCCN1c2ccccc2CCc2ccccc21 [Desipramine, desipramine]
- Immobility time / antidepressant-like activity, forced swim (mice [1]): induced signs of antidepressant-like activity
- Immobility time / antidepressant-like activity, tail suspension (mice [2]): induced signs of antidepressant-like activity
